Assay results: ChEMBL document CHEMBL1201862, “PubChem BioAssay data set” (2004)
Active and inactive are the calls of the source.

Assays:
P388 = test: cells; type: functional; details: Mus musculus
SN12K1 = test: cells; type: functional; details: Homo sapiens
P388/ADR = test: cells; type: functional; details: Mus musculus
[1] = viability of PTEN-deleted HCT116 cells – cell-based, HCT116 PTEN knockout, dose response (AID 1047); type: functional;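 also: HCT116 colon tumor cells with PTEN knocked out; cells exposed to compound for 60 hours before readout; potency for loss of cell viability measured by luminescence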
[2] = target: T1, Ubiquitin-conjugating enzyme E2 N (Homo sapiens, UniProt P61088); type: functional
T1 sequence (P61088 whole entry): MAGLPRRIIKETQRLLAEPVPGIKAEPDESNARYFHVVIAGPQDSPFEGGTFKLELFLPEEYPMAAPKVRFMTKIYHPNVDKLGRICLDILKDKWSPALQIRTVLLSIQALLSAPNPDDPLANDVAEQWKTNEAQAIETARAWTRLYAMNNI

[3] = viability of HCT116 lacking mutant beta-catenin – cell-based, human colon tumor, dose response (AID 1045); type: functional;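 also: HCT116 colon tumor cells with beta catenin knocked out; cells exposed to compound for 60 hours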
[4] = viability loss of HPDE-C7K cells – cell-based, fluorescence, HTS, primary screen (AID 431); type: functional; details: Homo sapiens
[5] = HPDE-C7 pancreatic duct cell viability loss – fluorescence, HTS (AID 430); type: functional, cell-based; details: Homo sapiens
[6] = target: T2, Long-chain-fatty-acid--AMP ligase FadD28 (Mycobacterium tuberculosis, UniProt P9WQ59); test: Fluorescence polarization aasay to screen for inhibitors that compete for the binding of FadD28 to a bisubstrate Measured in Biochemical System Using Plate Reader - 2147-01_Inhibitor_Dose_CherryPick_Activity.; type: functional, Mycobacterium tuberculosis H37Rv
T2 sequence (P9WQ59 whole entry): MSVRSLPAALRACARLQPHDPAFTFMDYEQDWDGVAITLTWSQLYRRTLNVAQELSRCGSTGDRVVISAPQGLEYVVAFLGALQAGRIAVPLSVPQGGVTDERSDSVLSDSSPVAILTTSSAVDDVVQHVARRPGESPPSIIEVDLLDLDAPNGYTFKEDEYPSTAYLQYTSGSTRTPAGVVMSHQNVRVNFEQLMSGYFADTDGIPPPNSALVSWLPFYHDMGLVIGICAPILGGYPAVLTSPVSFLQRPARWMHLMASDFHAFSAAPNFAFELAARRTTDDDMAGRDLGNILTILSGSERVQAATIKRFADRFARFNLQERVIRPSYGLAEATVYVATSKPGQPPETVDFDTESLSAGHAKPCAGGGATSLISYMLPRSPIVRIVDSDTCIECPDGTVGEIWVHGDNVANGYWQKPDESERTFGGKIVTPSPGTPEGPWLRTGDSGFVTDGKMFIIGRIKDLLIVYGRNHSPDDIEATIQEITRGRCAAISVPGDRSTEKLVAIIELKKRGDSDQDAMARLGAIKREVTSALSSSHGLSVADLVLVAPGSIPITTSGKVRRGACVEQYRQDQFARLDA

[7] = target: T1, Ubiquitin-conjugating enzyme E2 N; type: functional; remark: listed apart in the source
Bcl-2-related protein A1 = target: T3, Bcl-2-related protein A1 (Mus musculus, UniProt Q07440); type: functional;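 also: confirmatory dose–response counterscreen on Bfl-1, used to check hits from a UBC13 polyubiquitin inhibitor campaign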
T3 sequence (Q07440 whole entry): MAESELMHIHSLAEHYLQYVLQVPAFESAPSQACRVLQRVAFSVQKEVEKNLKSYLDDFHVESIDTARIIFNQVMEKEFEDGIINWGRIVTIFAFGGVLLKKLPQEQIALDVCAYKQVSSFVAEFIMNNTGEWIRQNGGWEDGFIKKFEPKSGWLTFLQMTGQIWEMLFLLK

Streptokinase A = target: T4, Streptokinase A (Streptococcus pyogenes serotype M1, UniProt P10520); test: viability-normalized secreted streptokinase activity reduction – plasminogen activation absorbance, OD405, dose response (AID 1914); type: functional, Streptococcus pyogenes M1 GAS;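 also: secreted streptokinase activity via plasminogen activation per viability signal from cell pellet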
T4 sequence (P10520 whole entry): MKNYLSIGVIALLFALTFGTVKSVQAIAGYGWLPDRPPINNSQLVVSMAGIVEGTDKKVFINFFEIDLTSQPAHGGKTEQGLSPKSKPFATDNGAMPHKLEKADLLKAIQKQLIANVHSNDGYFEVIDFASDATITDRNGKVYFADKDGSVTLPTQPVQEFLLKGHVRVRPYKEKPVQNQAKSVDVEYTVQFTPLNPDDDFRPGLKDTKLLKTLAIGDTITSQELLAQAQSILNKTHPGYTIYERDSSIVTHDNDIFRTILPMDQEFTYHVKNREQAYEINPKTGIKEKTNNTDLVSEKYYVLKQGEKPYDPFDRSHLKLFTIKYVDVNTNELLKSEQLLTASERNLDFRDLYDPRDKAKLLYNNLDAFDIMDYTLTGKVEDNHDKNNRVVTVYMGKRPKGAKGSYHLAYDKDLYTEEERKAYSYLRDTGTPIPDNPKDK

[8] = tested on: Streptococcus sp. 'group A'; test: Streptococcus pyogenes SK(-)GAS viability under kanamycin – luminescence, BacTiterGlo, confirmation, counter-screen for streptokinase expression inhibitor project, dose response (AID 1900); type: functional, organism-based
Vero [9] = test: cells; type: functional, cell-based; details: Chlorocebus sabaeus
Streptococcus = test: GAS UMAA2166 growth inhibition – luminescence, BacTiterGlo, counter-screen for streptokinase expression inhibitor project, dose response (AID 1915); type: functional, organism-based;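 also: potency for reduction of bacterial viability or growth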
HEK293 [10] = test: cells; type: functional, cell-based; details: Homo sapiens
HEK293 [11] = test: inhibition of NOD1-driven NF-kB reporter – cell-based, luminescence, uHTS, primary screen (AID 1578); type: functional; details: Homo sapiens
HEK293 [12] = test: NOD2 signaling inhibitors in MDP-stimulated cells, cell-based, uHTS, luminescence (AID 2001); type: functional; details: Homo sapiens
HEK293 [13] = test: cells; type: functional, cell-based; details: Homo sapiens; remark: listed apart in the source
Vero [14] = test: cells; type: functional; details: Chlorocebus sabaeus
[15] = A Cell Based Secondary Assay To Explore Cytotoxicity of Compounds that Sensitize Mycobacterium Tuberculosis to Beta-Lactam Antibiotics.; type: functional
Vero [16] = test: mammalian cell viability reduction – secondary assay, cytotoxicity control for West Nile virus antiviral project, dose response (AID 1650); type: functional; details: Chlorocebus sabaeus
[17] = target: T5, RNA-binding protein pos-1 (Caenorhabditis elegans, UniProt G5EF15); test: disruptors of C. elegans POS-1 RNA interaction – biochemical, fluorescence polarization, dose response (AID 1964);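 also: purified POS-1 fused to maltose binding protein made in E. coli; potency of compounds blocking POS-1 binding to fluorescent RNA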
T5 sequence (G5EF15 whole entry): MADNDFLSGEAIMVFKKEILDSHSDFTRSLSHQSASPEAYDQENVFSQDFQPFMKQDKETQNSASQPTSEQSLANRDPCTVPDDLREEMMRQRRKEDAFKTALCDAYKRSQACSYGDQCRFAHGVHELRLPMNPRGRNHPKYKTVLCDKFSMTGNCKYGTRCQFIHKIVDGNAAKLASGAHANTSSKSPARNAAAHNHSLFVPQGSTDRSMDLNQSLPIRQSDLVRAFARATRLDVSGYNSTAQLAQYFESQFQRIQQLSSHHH

[18] = target: T6, Zinc finger protein mex-5 (Caenorhabditis elegans, UniProt Q9XUB2); test: potency of MEX-5 RNA-binding blockers – biochemical, C. elegans, fluorescence polarization, dose response (AID 1960)
T6 sequence (Q9XUB2 whole entry): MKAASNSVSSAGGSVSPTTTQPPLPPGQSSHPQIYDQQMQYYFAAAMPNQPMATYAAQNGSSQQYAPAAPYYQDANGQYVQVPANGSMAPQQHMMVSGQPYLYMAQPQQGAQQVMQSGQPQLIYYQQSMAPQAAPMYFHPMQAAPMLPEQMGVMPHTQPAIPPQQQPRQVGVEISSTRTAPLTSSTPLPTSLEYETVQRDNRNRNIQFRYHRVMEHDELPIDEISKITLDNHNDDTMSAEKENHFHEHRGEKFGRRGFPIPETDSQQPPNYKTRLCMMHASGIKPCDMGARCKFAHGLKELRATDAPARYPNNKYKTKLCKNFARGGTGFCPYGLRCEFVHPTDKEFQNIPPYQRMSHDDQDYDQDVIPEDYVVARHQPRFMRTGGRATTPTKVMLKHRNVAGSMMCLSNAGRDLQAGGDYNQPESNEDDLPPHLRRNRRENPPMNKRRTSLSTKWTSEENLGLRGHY

[19] = target: T7, DNA repair and recombination protein RAD54-like (Homo sapiens, UniProt Q92698); test: RAD54 Holliday junction migration blockers – biochemical, fluorescence, cherry-picked samples, dose series, confirmation (AID 651657); type: functional
T7 sequence (Q92698 whole entry): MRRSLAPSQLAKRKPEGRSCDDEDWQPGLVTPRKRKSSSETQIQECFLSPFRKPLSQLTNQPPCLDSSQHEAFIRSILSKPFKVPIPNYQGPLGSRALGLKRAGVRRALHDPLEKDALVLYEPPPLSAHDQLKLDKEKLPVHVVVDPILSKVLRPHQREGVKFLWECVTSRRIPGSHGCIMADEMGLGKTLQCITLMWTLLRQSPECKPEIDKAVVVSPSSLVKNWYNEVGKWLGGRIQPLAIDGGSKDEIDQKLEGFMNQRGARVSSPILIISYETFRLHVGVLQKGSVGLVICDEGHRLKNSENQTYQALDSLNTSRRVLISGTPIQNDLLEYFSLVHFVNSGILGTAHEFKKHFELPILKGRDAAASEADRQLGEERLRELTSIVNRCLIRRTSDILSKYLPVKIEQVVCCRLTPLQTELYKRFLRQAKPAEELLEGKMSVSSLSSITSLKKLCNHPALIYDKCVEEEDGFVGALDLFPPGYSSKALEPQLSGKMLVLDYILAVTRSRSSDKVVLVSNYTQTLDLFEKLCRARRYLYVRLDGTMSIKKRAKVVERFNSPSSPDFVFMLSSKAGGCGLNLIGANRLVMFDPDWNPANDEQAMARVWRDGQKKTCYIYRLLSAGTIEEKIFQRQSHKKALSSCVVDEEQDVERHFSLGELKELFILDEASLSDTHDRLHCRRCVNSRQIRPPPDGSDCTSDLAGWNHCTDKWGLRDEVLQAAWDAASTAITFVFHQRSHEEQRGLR

[20] = target: T8, DNA repair protein RAD52 homolog (Homo sapiens, UniProt P43351); type: functional, biochemical
T8 sequence (P43351 whole entry): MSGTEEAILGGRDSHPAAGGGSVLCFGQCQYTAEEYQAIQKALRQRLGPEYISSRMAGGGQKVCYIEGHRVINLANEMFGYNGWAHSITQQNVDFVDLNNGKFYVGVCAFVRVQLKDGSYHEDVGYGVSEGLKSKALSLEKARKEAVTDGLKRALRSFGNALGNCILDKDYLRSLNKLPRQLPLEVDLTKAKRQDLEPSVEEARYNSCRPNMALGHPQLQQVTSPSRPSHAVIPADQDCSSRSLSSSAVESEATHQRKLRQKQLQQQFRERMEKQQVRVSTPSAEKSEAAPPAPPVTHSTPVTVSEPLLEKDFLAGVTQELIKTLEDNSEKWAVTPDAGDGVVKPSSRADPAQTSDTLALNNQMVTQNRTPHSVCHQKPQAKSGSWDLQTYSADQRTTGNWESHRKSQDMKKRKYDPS

HEK293 [21] = test: HEK293T cell viability loss, resazurin readout – resazurin fluorescence, cytotoxicity control for NF-kB activator project, SAR follow-up (AID 493251); type: functional, cell-based; details: Homo sapiens

COc1ccc2c3c1O[C@H]1C[C@@H](O)C=C[C@@]31CCN(C)C2 [GALANTAMINE]
GI50 (P388): > 150 µM (inactive)
GI50 (SN12K1): > 150 µM (inactive)
GI50 (P388/ADR): > 150 µM (inactive)

CC1OC1C(=O)C1(O)C(C)C(O)C23OC2(C(O)c2c(O)cccc2C3=O)C1O (stereo not given) [CERVICARCIN]
GI50 (P388): 0.144 µM (active)
GI50 (SN12K1): 0.225 µM (active)
GI50 (P388/ADR): 0.18 µM (active)

CCCCCCCCCCCCCCC[C@@H](O)[C@@H](N)CO [DIHYDROSPINGOSINE]
EC50 [1]: 8.66 µM (active)
IC50 [2]: 15.5 µM (active)
EC50 [3]: 7.58 µM (active)
EC50 [4]: 9.93 µM (active)
EC50 [5]: 14 µM (active)
AC50 [6]: 5.6 µM (active)
IC50 [7]: 13.4 µM (active)
IC50 (Bcl-2-related protein A1): > 20 µM (inactive)
EC50 (Streptokinase A): > 150 µM (not active)
EC50 [8]: 1.34 µM (active)
IC50 (Vero [9]): > 25 µM (active)
EC50 (Streptococcus): 8.91 µM (active)

Cn1c(/C=C/c2ccc(Cl)cc2)c([N+](=O)[O-])c(=O)n(C)c1=O
IC50 (HEK293 [10]): > 20 µM (inactive)
EC50 (HEK293 [11]): 16 µM (active)
IC50 (HEK293 [12]): 8.84 µM (active)
IC50 (HEK293 [13]): 8.13 µM (active)
CC50 (Vero [14]): 19.1 µM (active)
IC50 (Vero [9]): > 25 µM (active)
CC50 [15]: 30 µM (active)
CC50 (Vero [16]): 15.7 µM (active)

O=c1cc[nH]c(=O)[nH]1 [URACIL]
GI50 (P388): 164 µM (inactive)
GI50 (SN12K1): 315 µM (inactive)
GI50 (P388/ADR): 292 µM (inactive)

N=c1c(C(=O)NCCN2CCOCC2)cc2c(=O)n3ccccc3nc2n1CCc1ccccc1
EC50 [17]: > 300 µM (not active)
EC50 [18]: > 300 µM (not active)
AC50 [19]: 25.2 µM (active)
AC50 [20]: 10.5 µM (active)

Cc1ccc2nc3c(C(=O)NCCN(C)C)cccc3cc2c1
GI50 (P388): 0.414 µM (active)
GI50 (SN12K1): 0.968 µM (active)
GI50 (P388/ADR): 1.85 µM (inactive)

CCNC(=O)c1cc2c(=O)n3cccc(C)c3nc2n(CCc2ccccc2)c1=N
EC50 [17]: 4.95 µM (inconclusive)
EC50 [18]: 30 µM (active)
AC50 [19]: 17.9 µM (active)

COc1ccc(-c2nc(CSCC(=O)NC3CC3)c(C)o2)cc1
IC50 (HEK293 [21]): > 80 µM (inactive)
